Values after ≈ are worked out from the molar mass of the structure shown.
What was measured:
E coli = assay: MIC assay, E coli; format: cell-based
H. flu = format: cell-based, H. influenza; conditions: H. flu
E. faecalis = assay: MIC assay, E. faecalis; format: cell-based, Enterococcus faecalis
S. aureus = assay: MIC assay, S. aureus; format: cell-based, Staphylococcus aureus
S. pneumo. = assay: MIC assay, S. pneumo.; format: cell-based, Streptococcus pneumoniae

Molecule | MIC (μg/mL) E coli (E coli) [µg/mL] | MIC (μg/mL) H. flu (H. flu) [µg/mL] | MIC (μg/mL) E. faecalis (E. faecalis) [µg/mL] | MIC (μg/mL) S. aureus (S. aureus) [µg/mL] | MIC (μg/mL) S. pneumo. (S. pneumo.) [µg/mL]
3′-hydroxy-5′-(4-ethylcarbamyl-1-piperidinyl)benzoxazinorifamycin [Compound 1] | >8 | 2 | 2 | 0.008 | 0.00025
25-O-deacetyl-5′-[(8aR)octahydropyrrolo[1,2-a]pyrazin-2-yl]benzthiazinorifamycin [Compound 78] | 4 | 0.12 | 0.12 | 0.002 | 0.00012
CCOC(=O)N1CCCC2CN(c3cc(O)c4nc5c6c7c8c(C)c(O)c6c(=O)c(c-5oc4c3)NC(=O)C(C)=CC=CC(C)C(O)C(C)C(O)C(C)C(O)C(C)C(OC)C=COC(C)(O8)C7=O)CC21 (mixture of isomers) [Compound 42, 25-O-deacetyl-3′-hydroxy-5′-[1-ethylcarbamyl-(4aR,7aR)-octahydro-6H-pyrrolo [3,4-b]pyridin-6-yl]benzoxazinorifamycin] | 8 | 0.5 | 2 | 0.008 | 0.00012
CCOC(=O)N1CCCC2CN(c3cc(O)c4nc5c6c7c8c(C)c(O)c6c(=O)c(c-5oc4c3)NC(=O)C(C)=CC=CC(C)C(O)C(C)C(O)C(C)C(OC(C)=O)C(C)C(OC)C=COC(C)(O8)C7=O)CC21 (single isomer, unassigned) [Compound 40] | >8 | 0.5 (≈ 0.501 µM) | 1 (≈ 1 µM) | 0.06 (≈ 0.0602 µM) | 0.008 (≈ 0.00802 µM)
COC1C=COC2(C)Oc3c(C)c(O)c4c(=O)c(c5oc6cc(N7CC8C(C7)C8NC(=O)OCC[Si](C)(C)C)cc(O)c6nc-5c4c3C2=O)NC(=O)C(C)=CC=CC(C)C(O)C(C)C(O)C(C)C(OC(C)=O)C1C [Compound 2, 3′-hydroxy-5′-[6-(2-trimethylsilyl)ethylcarbamyl-(1R,5S)-3-azabicyclo[3.1.0]hex-3-yl]benzoxazinorifamycin] | >8 | >8 | >8 | 1 (≈ 0.96 µM) | 0.03 (≈ 0.0288 µM)
CCOC(=O)NC1CCN(c2cc(O)c3nc4c5c6c7c(C)c(O)c5c(=O)c(c-4oc3c2)NC(=O)/C(C)=C\C=C\[C@H](C)[C@H](O)[C@@H](C)[C@@H](O)[C@@H](C)[C@H](O)[C@H](C)[C@@H](OC)/C=C/O[C@@](C)(O7)C6=O)CC1 [Compound 3, 25-O-deacetyl-3′-hydroxy-5′-(4-ethylcarbamyl-1-piperidinyl)benzoxazinorifamycin] | 4 (≈ 4.31 µM) | 0.25 (≈ 0.269 µM) | 0.12 (≈ 0.129 µM) | 0.03 (≈ 0.0323 µM) | 0.0005 (≈ 0.000538 µM)
COC1C=COC2(C)Oc3c(C)c(O)c4c(=O)c(c5oc6cc(N7CC8C(N)C8C7)cc(O)c6nc-5c4c3C2=O)NC(=O)C(C)=CC=CC(C)C(O)C(C)C(O)C(C)C(OC(C)=O)C1C [Compound 4, 3′-hydroxy-5′-[6-amino-(1R,5S)-3-azabicyclo[3.1.0]hex-3-yl]benzoxazinorifamycin] | >8 | 0.25 (≈ 0.279 µM) | 0.5 (≈ 0.557 µM) | 0.03 (≈ 0.0334 µM) | 0.00025 (≈ 0.000279 µM)
CO[C@H]1/C=C/O[C@@]2(C)Oc3c(C)c(O)c4c(=O)c(c5oc6cc(N7C[C@@H]8CCCN[C@@H]8C7)cc(O)c6nc-5c4c3C2=O)NC(=O)/C(C)=C\C=C\[C@H](C)[C@H](O)[C@@H](C)[C@@H](O)[C@@H](C)[C@H](OC(C)=O)[C@@H]1C [Compound 5, 3′-hydroxy-5′-[(4aS,7aS)-octahydro-6H-pyrrolo[3,4-b]pyridin-6-yl]benzoxazinorifamycin] | 8 (≈ 8.65 µM) | 2 (≈ 2.16 µM) | 0.5 (≈ 0.541 µM) | 0.015 (≈ 0.0162 µM) | 0.00025 (≈ 0.00027 µM)
CO[C@H]1/C=C/O[C@@]2(C)Oc3c(C)c(O)c4c(=O)c(c5oc6cc(N7C[C@@H]8CCCN[C@@H]8C7)cc(O)c6nc-5c4c3C2=O)NC(=O)/C(C)=C\C=C\[C@H](C)[C@H](O)[C@@H](C)[C@@H](O)[C@@H](C)[C@H](O)[C@@H]1C [Compound 7, 25-O-deacetyl-3′-hydroxy-5′-[(4aS,7aS)-octahydro-6H-pyrrolo[3,4-b]pyridin-6-yl]benzoxazinorifamycin] | >8 | 4 (≈ 4.53 µM) | 4 (≈ 4.53 µM) | 0.12 (≈ 0.136 µM) | 0.004 (≈ 0.00453 µM)

— patent US7271165B2, “Rifamycin analogs and uses thereof” (priority 2003, dated 2007)
